We go through 21 compounds from patent US11434242B2, “Dopamine-b-hydroxylase inhibitors” (BIAL-PORTELA & Cª, S.A., priority 2017, dated 2022).

Counter-ions that a name gives are not always drawn.

The first test has as its target T1, Dopamine beta hydroxylase (Homo sapiens, UniProt P09172).
T1 construct: 125 μl of plasma; tissue Instituto Português do Sangue Transplantação; host or cells: human plasma from healthy donors
T1 sequence (P09172 40-617 limits assumed): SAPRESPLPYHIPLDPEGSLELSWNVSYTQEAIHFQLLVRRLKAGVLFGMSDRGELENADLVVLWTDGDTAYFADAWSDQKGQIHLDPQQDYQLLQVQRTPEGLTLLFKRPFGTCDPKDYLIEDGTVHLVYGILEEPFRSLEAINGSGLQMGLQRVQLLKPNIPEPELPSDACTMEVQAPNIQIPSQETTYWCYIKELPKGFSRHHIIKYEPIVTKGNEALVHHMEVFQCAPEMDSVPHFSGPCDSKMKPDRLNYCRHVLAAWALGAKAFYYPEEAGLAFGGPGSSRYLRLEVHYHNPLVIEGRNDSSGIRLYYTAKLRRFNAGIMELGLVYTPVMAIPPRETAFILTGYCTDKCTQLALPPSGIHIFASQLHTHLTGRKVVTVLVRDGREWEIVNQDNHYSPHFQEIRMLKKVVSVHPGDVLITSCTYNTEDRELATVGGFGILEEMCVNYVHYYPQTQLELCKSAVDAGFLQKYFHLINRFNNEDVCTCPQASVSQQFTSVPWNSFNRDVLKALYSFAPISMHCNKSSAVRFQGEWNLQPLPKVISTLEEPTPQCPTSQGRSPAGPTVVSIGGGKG
The test can be described thus: Dopamine beta hydroxylase activity in human plasma. The test is classed as biochemical. The settings on record: inhibitor 0.01 μM. The method, boiled down: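 Healthy-donor human plasma pre-incubated 10 min at 37° C with compound at final 10, 100 or 1000 nM in pH 5.0 acetate buffer with ascorbate, fumarate, pargyline, N-ethylmaleimide, catalase and copper sulfate. Tyramine substrate then added for 45 min; octopamine formed was isolated by SCX cartridge, periodate-converted and read at 330 nm; activity given as % control.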
Take `O=C(Cc1[nH]c(=S)n2c1[C@@H]1C[C@]1(c1c(F)ccc(Cl)c1F)C2)NCC(F)(F)F` [Example 150, 2-((5aS,6aR)-5a-(3-chloro-2,6-difluorophenyl)-3-thioxo-2,3,5,5a,6,6a-hexahydrocyclopropa[3,4]pyrrolo[1,2-c]imidazol-1-yl)-N-(2,2,2-trifluoroethyl)acetamide]: the “Plasma (0.01 μM), activity in % of control” value was 64.8 % of control.

Staying with this test, now noted: inhibitor 0.1 μM.
With `O=C(Cc1[nH]c(=S)n2c1[C@@H]1C[C@]1(c1c(F)ccc(Cl)c1F)C2)NCC(F)(F)F` [Example 150, 2-((5aS,6aR)-5a-(3-chloro-2,6-difluorophenyl)-3-thioxo-2,3,5,5a,6,6a-hexahydrocyclopropa[3,4]pyrrolo[1,2-c]imidazol-1-yl)-N-(2,2,2-trifluoroethyl)acetamide], the “Plasma (0.1 μM), activity in % of control” value is recorded as 17.1 % of control.

A further test concerns the target T2, DβH (Homo sapiens, UniProt P09172).
T2 construct: cellular homogenate (75 μg total protein); host or cells: SK-N-SH cells (homogenate)
T2 sequence (P09172 1-617): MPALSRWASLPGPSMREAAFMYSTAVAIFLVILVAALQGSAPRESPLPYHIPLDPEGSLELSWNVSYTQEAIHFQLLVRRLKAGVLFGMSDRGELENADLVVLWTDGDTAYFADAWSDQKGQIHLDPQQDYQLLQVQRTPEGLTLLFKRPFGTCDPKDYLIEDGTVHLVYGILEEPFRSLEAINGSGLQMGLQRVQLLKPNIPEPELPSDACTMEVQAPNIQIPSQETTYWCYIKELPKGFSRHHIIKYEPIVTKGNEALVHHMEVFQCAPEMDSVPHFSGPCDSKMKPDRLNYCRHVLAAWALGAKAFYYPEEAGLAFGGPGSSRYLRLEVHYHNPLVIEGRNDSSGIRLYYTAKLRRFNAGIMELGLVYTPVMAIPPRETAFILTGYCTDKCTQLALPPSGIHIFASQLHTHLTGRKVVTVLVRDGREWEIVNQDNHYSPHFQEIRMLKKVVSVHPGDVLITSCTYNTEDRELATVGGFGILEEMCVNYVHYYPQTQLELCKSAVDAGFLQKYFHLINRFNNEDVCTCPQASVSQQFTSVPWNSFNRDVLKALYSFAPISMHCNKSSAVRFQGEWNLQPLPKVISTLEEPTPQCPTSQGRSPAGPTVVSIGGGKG
The test can be described thus: DβH inhibition assay in SK-N-SH cellular homogenates (tyramine to octopamine). Type of test: biochemical. The settings on record: SK-N-SH cell homogenate, inhibitor 0.1 μM.
With `OCc1[nH]c(=S)n2c1[C@@H]1C[C@]1(c1cc(F)cc(F)c1)C2` [Example 50, (5aS,6aR)-5a-(3,5-difluorophenyl)-1-(hydroxymethyl)-5,5a,6,6a-tetrahydrocyclopropa[3,4]pyrrolo[1,2-c]imidazole-3(2H)-thione], the “SKNSH (0.1 μM), activity in % of control” value is recorded as 57.5 % of control.

Regarding `O=C(O)Cc1[nH]c(=S)n2c1[C@@H]1C[C@]1(c1cc(F)ccc1F)C2` [Example 6, 2-((5aS,6aR)-5a-(2,5-difluorophenyl)-3-thioxo-2,3,5,5a,6,6a-hexahydrocyclopropa[3,4]pyrrolo[1,2-c]imidazol-1-yl)acetic Acid], the “SKNSH (0.1 μM), activity in % of control” value is on record as 36.9 % of control. Same read-out and setting: the value for `OCCc1[nH]c(=S)n2c1[C@@H]1C[C@]1(c1cc(F)ccc1F)C2` [Example 42, (5aS,6aR)-5a-(2,5-difluorophenyl)-1-(2-hydroxyethyl)-5,5a,6,6a-tetrahydrocyclopropa[3,4]pyrrolo[1,2-c]imidazole-3(2H)-thione] was 51.5 % of control.

The test is the same for the next values; noted with them: SK-N-SH cell homogenate, inhibitor 1 μM.
Regarding `CN(Cc1ccccc1)C(=O)Cc1[nH]c(=S)n2c1[C@@H]1C[C@]1(c1cc(F)ccc1F)C2` [Example 37, N-benzyl-2-((5aS,6aR)-5a-(2,5-difluorophenyl)-3-thioxo-2,3,5,5a,6,6a-hexahydrocyclopropa[3,4]pyrrolo[1,2-c]imidazol-1-yl)-N-methylacetamide], the “SKNSH (1 μM), activity in % of control” value is on record as 15.7 % of control. Turning to `O=Cc1[nH]c(=S)n2c1C[C@@H](c1cc(F)cc(F)c1)C2` [Example 45, (S)-6-(3,5-difluorophenyl)-3-thioxo-3,5,6,7-tetrahydro-2H-pyrrolo[1,2-c]imidazole-1-carbaldehyde], the “SKNSH (1 μM), activity in % of control” value was 46.8 % of control.

Consider `O=C(O)Cc1[nH]c(=S)n2c1C[C@@H](c1cc(F)ccc1F)C2` [Example 3, (S)-2-(6-(2,5-difluorophenyl)-3-thioxo-3,5,6,7-tetrahydro-2H-pyrrolo[1,2-c]imidazol-1-yl)acetic Acid], for which the “SKNSH (1 μM), activity in % of control” value is 35.8 % of control.

Take `CCOC(=O)Cc1[nH]c(=S)n2c1C1CC1(c1cccs1)C2` (stereo not shown) [Example 44, Ethyl 2-(5a-(thiophen-2-yl)-3-thioxo-2,3,5,5a,6,6a-hexahydrocyclopropa[3,4]pyrrolo[1,2-c]imidazol-1-yl)acetate]: the “SKNSH (1 μM), activity in % of control” value is on record as 45.9 % of control. Still for that read-out and setting: the value for `N#CCc1[nH]c(=S)n2c1[C@@H]1C[C@]1(c1cc(F)ccc1F)C2` [Example 36, 2-((5aS,6aR)-5a-(2,5-difluorophenyl)-3-thioxo-2,3,5,5a,6,6a-hexahydrocyclopropa[3,4]pyrrolo[1,2-c]imidazol-1-yl)acetonitrile] was 50.1 % of control. The same measure, in the same setting: with `COC(=O)Cc1[nH]c(=S)n2c1[C@@H]1C[C@]1(c1cc(F)ccc1F)C2` [Example 4, Methyl 2-((5aS,6aR)-5a-(2,5-difluorophenyl)-3-thioxo-2,3,5,5a,6,6a-hexahydrocyclopropa[3,4]pyrrolo[1,2-c]imidazol-1-yl)acetate] the figure was 20.3 % of control; with `Fc1ccc(F)c([C@]23C[C@H]2c2c(CCCc4ccccc4)[nH]c(=S)n2C3)c1` [Example 49, (5aS,6aR)-5a-(2,5-difluorophenyl)-1-(3-phenylpropyl)-5,5a,6,6a-tetrahydrocyclopropa[3,4]pyrrolo[1,2-c]imidazole-3(2H)-thione], 33.7 % of control; with `CCOC(=O)Cc1[nH]c(=S)n2c1C[C@@H](c1cc(F)cc(F)c1)C2` [Example 1, (S)-ethyl 2-(6-(3,5-difluorophenyl)-3-thioxo-3,5,6,7-tetrahydro-2H-pyrrolo[1,2-c]imidazol-1-yl)acetate], 37.9 % of control. Same read-out and setting: with `OCc1[nH]c(=S)n2c1[C@@H]1C[C@]1(c1cc(F)cc(F)c1)C2` [Example 50, (5aS,6aR)-5a-(3,5-difluorophenyl)-1-(hydroxymethyl)-5,5a,6,6a-tetrahydrocyclopropa[3,4]pyrrolo[1,2-c]imidazole-3(2H)-thione] the figure was 1.8 % of control; with `O=C(O)Cc1[nH]c(=S)n2c1[C@@H]1C[C@]1(c1cc(F)ccc1F)C2` [Example 6, 2-((5aS,6aR)-5a-(2,5-difluorophenyl)-3-thioxo-2,3,5,5a,6,6a-hexahydrocyclopropa[3,4]pyrrolo[1,2-c]imidazol-1-yl)acetic Acid], 3.7 % of control; with `OCCc1[nH]c(=S)n2c1[C@@H]1C[C@]1(c1cc(F)cc(F)c1)C2` [Example 8, (5aS,6aR)-5a-(3,5-difluorophenyl)-1-(2-hydroxyethyl)-5,5a,6,6a-tetrahydrocyclopropa[3,4]pyrrolo[1,2-c]imidazole-3(2H)-thione], 15.3 % of control. With `CCOC(=O)Cc1[nH]c(=S)n2c1C[C@@H](c1cc(F)ccc1F)C2` [Example 2, (S)-ethyl 2-(6-(2,5-difluorophenyl)-3-thioxo-3,5,6,7-tetrahydro-2H-pyrrolo[1,2-c]imidazol-1-yl)acetate], the “SKNSH (1 μM), activity in % of control” value is listed as 49.3 % of control. Still for that read-out and setting: the value for `CN(CCc1[nH]c(=S)n2c1[C@@H]1C[C@]1(c1cc(F)ccc1F)C2)Cc1ccccc1` [Example 40, (5aS,6aR)-1-(2-(benzyl(methyl)amino)ethyl)-5a-(2,5-difluorophenyl)-5,5a,6,6a-tetrahydrocyclopropa[3,4]pyrrolo[1,2-c]imidazole-3(2H)-thione] was 29.3 % of control; that for `Fc1ccc(F)c([C@]23C[C@H]2c2c(Cc4nnn[nH]4)[nH]c(=S)n2C3)c1` [Example 41, (5aS,6aR)-1-((1H-tetrazol-5-yl)methyl)-5a-(2,5-difluorophenyl)-5,5a,6,6a-tetrahydrocyclopropa[3,4]pyrrolo[1,2-c]imidazole-3(2H)-thione] was 60.7 % of control; that for `NC(=O)Cc1[nH]c(=S)n2c1[C@@H]1C[C@]1(c1cc(F)cc(F)c1)C2` [Example 33, 2-((5aS,6aR)-5a-(3,5-difluorophenyl)-3-thioxo-2,3,5,5a,6,6a-hexahydrocyclopropa[3,4]pyrrolo[1,2-c]imidazol-1-yl)acetamide] was 33.4 % of control. Turning to `NCCc1[nH]c(=S)n2c1[C@@H]1C[C@]1(c1cc(F)cc(F)c1)C2` [Example 35, (5aS,6aR)-1-(2-aminoethyl)-5a-(3,5-difluorophenyl)-5,5a,6,6a-tetrahydrocyclopropa[3,4]pyrrolo[1,2-c]imidazole-3(2H)-thione Hydrochloride], the “SKNSH (1 μM), activity in % of control” value was 45.9 % of control. Still for that read-out and setting: with `O=C(O)Cc1[nH]c(=S)n2c1C[C@@H](c1cc(F)cc(F)c1)C2` [Example 11, (S)-2-(6-(3,5-difluorophenyl)-3-thioxo-3,5,6,7-tetrahydro-2H-pyrrolo[1,2-c]imidazol-1-yl)acetic Acid] the figure was 28.5 % of control; with `OCCc1[nH]c(=S)n2c1[C@@H]1C[C@]1(c1cc(F)ccc1F)C2` [Example 42, (5aS,6aR)-5a-(2,5-difluorophenyl)-1-(2-hydroxyethyl)-5,5a,6,6a-tetrahydrocyclopropa[3,4]pyrrolo[1,2-c]imidazole-3(2H)-thione], 8.0 % of control. `COC(=O)Cc1[nH]c(=S)n2c1[C@@H]1C[C@]1(c1cc(F)cc(F)c1)C2` [Example 5, Methyl 2-((5aS,6aR)-5a-(3,5-difluorophenyl)-3-thioxo-2,3,5,5a,6,6a-hexahydrocyclopropa[3,4]pyrrolo[1,2-c]imidazol-1-yl)acetate]: the “SKNSH (1 μM), activity in % of control” value is reported as 19.9 % of control. Still for that read-out and setting: the value for `O=C(Cc1[nH]c(=S)n2c1C[C@@H](c1cc(F)cc(F)c1)C2)N1CCOCC1` [Example 9, (S)-2-(6-(3,5-difluorophenyl)-3-thioxo-3,5,6,7-tetrahydro-2H-pyrrolo[1,2-c]imidazol-1-yl)-1-morpholinoethanone] was 54.9 % of control.
